For one test, the system named is IGF-1R. Kind of test: Biacore analysis of the IGF-1R-Fc mutant library: M13-C06 Fab binding to receptor-Fc captured on M13-C06 chip. Also noted: species or system human. To be noted: for Biacore Relative RUmax: M13-C06 Fab binding to mutant hIGF-1R-Fc captured on M13-C06 chip. The source says: Both mIGF-1R-Fc and hIGF-1R-Fc bind with high apparent affinity to the M13-C06, M14-C03, and M14-G11 sensorchip surfaces described above due to their highly multivalent nature induced by the incorporation of two separate homodimeric regions (IGF-1R and IgG1-Fc). To distinguish between the actual high affinity binding hIGF-1R-Fc to M13-C06 and the low affinity binding of mIGF-1R-Fc to M13-C06, the receptor-Fc fusions were captured on the M13-C06 sensorchip surface followed by an additional soluble M13-C06 Fab binding event. […] After, completion of the receptor-Fc loading step, flow rates were elevated to 5 μl/min. 10 nM, […], and 1 nM M13-C06 Fab concentrations were injected (50 μL) subsequent to the loading of each receptor-Fc construct. At the end of each sensorgram, the flow rate was elevated to 30 μl/min and the chip surface was regenerated by 2×10 μL injections of 0.1 M glycine, pH 2.
For orientation: In SPR one partner is held on a chip, and binding of the other changes the refractive index at the surface.

Another test concerns IGF-1R-Fc. In words: Surface plasmon resonance analysis of the IGF-1R-Fc mutant library (46 mutants). Type of test: binding, human. The conditions noted are these: for C06 binding: M13-C06 Fab; for C06 binding / G11 binding / C03 binding / P1E2 binding / αIR3 binding: KD relative to WT hIGF-1R-Fc; for G11 binding: M14-G11 Fab; for C03 binding: M14-C03 Fab; for P1E2 binding: P1E2 antibody; for αIR3 binding: αIR3 antibody; for loss in affinity for M14-G11 Fab based on the measured KD: mutant versus wild-type. As for the experimental part: Surface plasmon resonance (SPR) experiments were performed on a Biacore 3000 instrument set to 25° C. Both mIGF-1R-Fc and hIGF-1R-Fc bind with high apparent affinity to research grade CM5 sensorchip surfaces containing immobilized M13-C06, M14-C03, and M14-G11. The antibody sensorchip surfaces were prepared by injecting each antibody (diluted 100 μg/mL in 10 mM Acetate, pH 4.0) over EDC/NHS-activated sensorchip surfaces according to the standard protocol of the manufacturer. The ability of mIGF-1R-Fc to bind the antibody surfaces was the result of high apparent avidity of the protein. Both hIGF-1R-Fc and mIGF-1R-Fc proteins oligomerize due to the incorporation of two separate homodimeric regions (IGF-1R and IgG1-Fc). To distinguish between actual high affinity antibody binding to hIGF-1R-Fc and low affinity antibody binding to mIGF-1R-Fc, the receptor-Fc fusions were captured on the M13-C06 and M14-G11 sensorchip surfaces followed by an additional injection of antibody (αIR3 and P1E2) or antibody Fab (M13-C06, M14-C03, and M14-G11). […] After, completion of the receptor-Fc loading step, flow rates were elevated to 5 μl/min. Solutions containing M13-C06 Fab or αIR3 antibody at 10 nM, 3 nM, or 1 nM or M14-C03 Fab, M14-G11 Fab, or P1E2 antibody at 30 nM, 10 nM, or 3 nM were injected (50 μL) subsequent to the loading of each receptor-Fc construct. Dissociation was measured for 7 minutes after the antibody injections were complete. Finally, the flow rate was elevated to 30 μL/min and the chip surfaces were regenerated by 2×10 μL injections of 0.1 M glycine, pH 2.
M13-C06, M14-C03, M14-G11, P1E2 and αIR3 were assayed for their ability to interact with each of the mutant IGF-1R-Fc fusion constructs using surface plasmon resonance (Biacore). To remove the uncertain concentrations of the IGF-1R-Fc fusion constructs as a variable in the assay, each mutant construct was captured on a research grade CM5 chip containing ˜10,000 RU immobilized […], M14-C03, and M14-G11 antibody. To enhance our ability to visualize attenuations in antibody binding to the captured mutant IGF-1R constructs, we utilized enzymatically derived M13-C06, M14-C03, and M14-G11 antigen binding fragments (Fabs).

Take SD003: hIGF-1R-Fc mutant T188F: the “Biacore Relative RUmax” value with IGF-1R was found to be 1.0. In the test with IGF-1R-Fc, the C06 binding entry is listed as “NE (No effect (NE): measured KD within 2.5-fold of WT hIGF-1R-Fc)” and the G11 binding result is “NE (No effect (NE): measured KD within 2.5-fold of WT hIGF-1R-Fc)”.
Regarding SD004: hIGF-1R-Fc mutant S210H_A211Q, the “Biacore Relative RUmax” value in the test with IGF-1R was 0.8. Also, in the test on IGF-1R-Fc, the C06 binding entry is reported as “NE (No effect (NE): measured KD within 2.5-fold of WT hIGF-1R-Fc)”, the C03 binding entry was “NE (No effect (NE): measured KD within 2.5-fold of WT hIGF-1R-Fc)” and the G11 binding entry is “NE (No effect (NE): measured KD within 2.5-fold of WT hIGF-1R-Fc)”.
SD005: hIGF-1R-Fc mutant A217T: the “Biacore Relative RUmax” value with IGF-1R is 0.9. In the test on IGF-1R-Fc, the C06 binding entry is recorded as “NE (No effect (NE): measured KD within 2.5-fold of WT hIGF-1R-Fc)”, the C03 binding result is reported as “NE (No effect (NE): measured KD within 2.5-fold of WT hIGF-1R-Fc)” and the G11 binding result is “NE (No effect (NE): measured KD within 2.5-fold of WT hIGF-1R-Fc)”.
On to SD006: hIGF-1R-Fc mutant A227K, for which the “Biacore Relative RUmax” value with IGF-1R is listed as 1.7. Further, in the test on IGF-1R-Fc, the C06 binding entry is reported as “NE (No effect (NE): measured KD within 2.5-fold of WT hIGF-1R-Fc)”, the C03 binding entry is given as “NE (No effect (NE): measured KD within 2.5-fold of WT hIGF-1R-Fc)”, the G11 binding result is “NE (No effect (NE): measured KD within 2.5-fold of WT hIGF-1R-Fc)” and the P1E2 binding result is listed as “NE (No effect (NE): measured KD within 2.5-fold of WT hIGF-1R-Fc)”. In the test with IGF-1R-Fc, the αIR3 binding result is on record as “NE (No effect (NE): measured KD within 2.5-fold of WT hIGF-1R-Fc)”.
Regarding SD007: hIGF-1R-Fc mutant N237G, the “Biacore Relative RUmax” value with IGF-1R came out at 1.3. In the test on IGF-1R-Fc, the C06 binding entry was “NE (No effect (NE): measured KD within 2.5-fold of WT hIGF-1R-Fc)”, the C03 binding entry was “NE (No effect (NE): measured KD within 2.5-fold of WT hIGF-1R-Fc)”, the G11 binding entry is recorded as “NE (No effect (NE): measured KD within 2.5-fold of WT hIGF-1R-Fc)” and the P1E2 binding result is on record as “NE (No effect (NE): measured KD within 2.5-fold of WT hIGF-1R-Fc)”. Also, the αIR3 binding entry in the test with IGF-1R-Fc is recorded as “NE (No effect (NE): measured KD within 2.5-fold of WT hIGF-1R-Fc)”.
For “SD008: hIGF-1R-Fc mutant S257F (Table 20), S258F (Table 17)”, in the test with IGF-1R, the “Biacore Relative RUmax” value turned out to be 1.5. Moreover, in the test on IGF-1R-Fc, the C06 binding entry was “NE (No effect (NE): measured KD within 2.5-fold of WT hIGF-1R-Fc)”, the C03 binding entry was “NE (No effect (NE): measured KD within 2.5-fold of WT hIGF-1R-Fc)”, the G11 binding result was “W (Weak (W): measured KD between 2.5-10-fold higher than WT)” and the P1E2 binding result is listed as “W (Weak (W): measured KD between 2.5-10-fold higher than WT)”. For the same substance, in the test with IGF-1R-Fc, the “loss in affinity for M14-G11 Fab based on the measured KD” value was “approximately 3 fold” and the αIR3 binding entry is “NE (No effect (NE): measured KD within 2.5-fold of WT hIGF-1R-Fc)”.
SD009: hIGF-1R-Fc mutant E264K: in the test with IGF-1R, the “Biacore Relative RUmax” value is on record as 0.6. Also, in the test on IGF-1R-Fc, the C06 binding entry is “NE (No effect (NE): measured KD within 2.5-fold of WT hIGF-1R-Fc)”, the C03 binding result is on record as “NE (No effect (NE): measured KD within 2.5-fold of WT hIGF-1R-Fc)”, the G11 binding entry is listed as “NE (No effect (NE): measured KD within 2.5-fold of WT hIGF-1R-Fc)” and the P1E2 binding result was “NE (No effect (NE): measured KD within 2.5-fold of WT hIGF-1R-Fc)”. Besides, the αIR3 binding result in the test with IGF-1R-Fc is listed as “NE (No effect (NE): measured KD within 2.5-fold of WT hIGF-1R-Fc)”.
SD010: hIGF-1R-Fc mutant G271D: in the test with IGF-1R, the “Biacore Relative RUmax” value is reported as 0.8. Besides, in the test with IGF-1R-Fc, the C06 binding result is “NE (No effect (NE): measured KD within 2.5-fold of WT hIGF-1R-Fc)”, the C03 binding entry was “NE (No effect (NE): measured KD within 2.5-fold of WT hIGF-1R-Fc)”, the G11 binding result is “NE (No effect (NE): measured KD within 2.5-fold of WT hIGF-1R-Fc)” and the P1E2 binding result is reported as “NE (No effect (NE): measured KD within 2.5-fold of WT hIGF-1R-Fc)”. Further, the αIR3 binding entry with IGF-1R-Fc is recorded as “NE (No effect (NE): measured KD within 2.5-fold of WT hIGF-1R-Fc)”.
Turning to SD011: hIGF-1R-Fc mutant G285S_S286T, in the test with IGF-1R, the “Biacore Relative RUmax” value is 1.8. For the same substance, in the test with IGF-1R-Fc, the C06 binding entry is reported as “NE (No effect (NE): measured KD within 2.5-fold of WT hIGF-1R-Fc)”, the C03 binding entry is given as “NE (No effect (NE): measured KD within 2.5-fold of WT hIGF-1R-Fc)”, the G11 binding entry is given as “NE (No effect (NE): measured KD within 2.5-fold of WT hIGF-1R-Fc)” and the P1E2 binding entry was “NE (No effect (NE): measured KD within 2.5-fold of WT hIGF-1R-Fc)”. For the same substance, in the test with IGF-1R-Fc, the αIR3 binding entry is “NE (No effect (NE): measured KD within 2.5-fold of WT hIGF-1R-Fc)”.
On to SD012: hIGF-1R-Fc mutant E303G, for which the “Biacore Relative RUmax” value with IGF-1R was 0.3. In addition, in the test on IGF-1R-Fc, the C06 binding entry is on record as “NE (No effect (NE): measured KD within 2.5-fold of WT hIGF-1R-Fc)”, the C03 binding entry was “NE (No effect (NE): measured KD within 2.5-fold of WT hIGF-1R-Fc)”, the G11 binding entry is on record as “W (Weak (W): measured KD between 2.5-10-fold higher than WT)” and the P1E2 binding entry was “W (Weak (W): measured KD between 2.5-10-fold higher than WT)”. In the test with IGF-1R-Fc, the “loss in affinity for M14-G11 Fab based on the measured KD” value is given as “approximately 3 fold” and the αIR3 binding result was “W (Weak (W): measured KD between 2.5-10-fold higher than WT)”.
Consider SD013: hIGF-1R-Fc mutant D405K, for which, in the test with IGF-1R, the “Biacore Relative RUmax” value is reported as 0.7. Besides, in the test on IGF-1R-Fc, the C06 binding entry is on record as “NE (No effect (NE): measured KD within 2.5-fold of WT hIGF-1R-Fc)”, the C03 binding result was “NE (No effect (NE): measured KD within 2.5-fold of WT hIGF-1R-Fc)” and the G11 binding result was “NE (No effect (NE): measured KD within 2.5-fold of WT hIGF-1R-Fc)”.
With SD014: hIGF-1R-Fc mutant K412A_A413Q, the “Biacore Relative RUmax” value in the test on IGF-1R was found to be 0.6. Further, in the test with IGF-1R-Fc, the C06 binding result was “NE (No effect (NE): measured KD within 2.5-fold of WT hIGF-1R-Fc)”, the C03 binding entry is on record as “NE (No effect (NE): measured KD within 2.5-fold of WT hIGF-1R-Fc)”, the G11 binding entry was “NE (No effect (NE): measured KD within 2.5-fold of WT hIGF-1R-Fc)” and the P1E2 binding entry is given as “NE (No effect (NE): measured KD within 2.5-fold of WT hIGF-1R-Fc)”. In addition, in the test with IGF-1R-Fc, the αIR3 binding result is recorded as “NE (No effect (NE): measured KD within 2.5-fold of WT hIGF-1R-Fc)”.
For “SD015: hIGF-1R-Fc mutant H464E (Table 20), E464H”, in the test on IGF-1R (SPR and tr-FRET, both assays), the “binding activity toward M13-C06” value was “virtually no binding activity”. In the test with IGF-1R-Fc, the “effect of mutation on M13-C06 and M14-C03 Fab binding” value is recorded as “complete ablation of the binding reaction”; the C06 binding entry is recorded as “S (Strong (S): binding to antibody was ablated by mutation)”; the C03 binding result is listed as “S (Strong (S): binding to antibody was ablated by mutation)”; the G11 binding entry is listed as “NE (No effect (NE): measured KD within 2.5-fold of WT hIGF-1R-Fc)”.
Consider SD016: hIGF-1R-Fc mutant D531Q_V532N, for which, in the test with IGF-1R, the “Biacore Relative RUmax” value was found to be 2.0. Moreover, in the test on IGF-1R-Fc, the C06 binding result was “NE (No effect (NE): measured KD within 2.5-fold of WT hIGF-1R-Fc)”, the C03 binding result was “NE (No effect (NE): measured KD within 2.5-fold of WT hIGF-1R-Fc)” and the G11 binding result is “NE (No effect (NE): measured KD within 2.5-fold of WT hIGF-1R-Fc)”.
With SD017: hIGF-1R-Fc mutant I650S, the “Biacore Relative RUmax” value in the test on IGF-1R worked out at 2.0. For the same substance, in the test on IGF-1R-Fc, the C06 binding entry is listed as “NE (No effect (NE): measured KD within 2.5-fold of WT hIGF-1R-Fc)”, the C03 binding entry is “NE (No effect (NE): measured KD within 2.5-fold of WT hIGF-1R-Fc)” and the G11 binding entry is given as “NE (No effect (NE): measured KD within 2.5-fold of WT hIGF-1R-Fc)”.
